Paper PMC12040169 (PLOS Biology, 2025)

test: in vitro; conditions: human, hela cells, % viability

In order of rising viability at 28.5 h, 10 µM:
1. Oc1c(C(Nc2cccnc2)c2ccccc2OCc2ccccc2)ccc2cccnc12 (stereo not shown) [CBK268587]  71.5%
2. O=C(O)C(c1c[nH]c2ccccc12)N1CCN(Cc2ccncc2)CC1 (stereo not shown) [CBK286624]  76.2%
3. Clc1cccc(-n2cnnn2)c1Cl [CBK027665]  77.7%
4. Cc1cccc(-c2ocnc2C(=O)NCCCn2ccnc2)c1 [CBK282418]  80.1%
5. CCCCNC(=S)NC1CC[C@@]2(Cc3ccc(OC)c(OC)c3)CCN(C)[C@H]2C1 (stereo partly shown) [CBK023805]  81.5%
6. O=C(N[C@H]1CCN2C(=O)c3cc(-c4ccccc4F)ccc3NC(=O)[C@H]12)c1cnccn1 [CBK289274]  84.7%
7. c1ccc(CCCN2CCN(C3CCN(Cc4ccccc4)CC3)CC2)cc1 [CBK263457]  84.8%
8. CCCn1ccc(CNCC(c2ccnn2C)C(C)C)c1 (stereo not shown) [CBK304861]  87%
9. CC(=O)c1ccc(N2CCN(Cc3cc(C(C)(C)C)c(O)c(C(C)(C)C)c3)CC2)cc1 [CBK261749]  87.2%
10. CCc1nc2ccc(C(=O)NCCNC(C)=O)cn2c1N(C)Cc1ccc(NC(C)=O)cc1 [CBK145612]  87.4%
11. Cn1cccc1CCC(=O)NC1CCN(Cc2ccccc2Cl)CC1 [CBK306814]  88.4%
12. Cc1nc2c(c(=O)[nH]1)CC[C@@H]1CN(C(=O)c3cccs3)C[C@H]21 [CBK284406]  88.7%
13. COc1nccnc1N1CCN(CCc2c[nH]c3ccccc23)CC1 [CBK084231]  89.2%
14. c1c2c(cc3sc(N4CCCCC4)nc13)OCCO2 [CBK287497]  89.3%
15. Fc1ccc(CCN2CCCCC2c2cc3ccccc3[nH]2)cc1 (stereo not shown) [CBK107227T]  89.6%
16. O=C(CN(c1cccc(Cl)c1)S(=O)(=O)c1ccccc1)NN=C1CCCCCC1 [CBK262519]  89.9%
17. COC(=O)N1CC2(CCCCC2NCCC(F)(F)F)c2ccccc21 (stereo not shown) [CBK083539T]  90%
18. Cc1cccc(OCC(=O)NCC(c2cccs2)N2CCOCC2)c1 (stereo not shown) [CBK305426]  90.1%
19. CN1CCOCC(CNC(=O)c2ccc(-c3ccccc3CO)cc2)C1 (stereo not shown) [CBK307601]  91.1%
20. CCOC(=O)CN1CCN(S(=O)(=O)c2cc(Cl)ccc2Cl)CC1 [CBK044628]  91.1%
21. CC(C)Cc1nc(C(=O)N2CCC3(C2)NC(=O)NC3=O)cs1 (stereo not shown) [CBK305534]  91.8%
22. O=C(O)c1cnc(-c2ccccc2)nc1 [CBK261272]  93.2%
23. O=C(CNC(=O)c1ccccc1C(=O)O)Nc1ccccc1 [CBK286690]  94.1%
24. CC(=O)Nc1cccc(CN(CCCO)C2CCc3ccccc32)c1 (stereo not shown) [CBK304011]  95%
25. CN(C)CCN(Cc1ccccc1)C(=O)Nc1cccnc1 [CBK145047]  95%
26. O=C(O)CN(c1ccccc1[N+](=O)[O-])S(=O)(=O)c1ccccc1 [CBK263158]  95.6%
27. CC(C)Nc1nc2cc(Cl)c(Cl)cc2nc1SCCC(=O)O [CBK107860]  96.1%
28. CCCCCNC(=O)C(Cc1ccc(O)c(C(=O)OCc2ccccc2)c1)NC(=O)OC(C)(C)C (stereo not shown) [CBK001708]  96.2%
29. O=C(O)c1ccccc1NC(=S)NC(=O)c1ccccc1[N+](=O)[O-] [CBK264963]  96.2%
30. O=C(O)CCC(=O)N1CCCC2(CCN(Cc3ccccc3)C2)C1 (stereo not shown) [CBK136890]  97%
31. CCc1nc(CN2CCCC(NC(C(N)=O)c3ccccc3)C2)no1 (stereo not shown) [CBK305348]  97.4%
32. Clc1ccc(CN2CCN(c3nccnc3OCCN3CCOCC3)CC2)cc1 [CBK082887T]  97.4%
33. CC1=CC(C)C(C(=O)O)C(C(=O)N2CCN(C)CC2)C1 (stereo not shown) [CBK027311G]  97.7%
34. N#Cc1c2c(c3nncn3c1Nc1ccccc1)CCCC2 [CBK288197]  97.7%
35. O=C(O)c1cc(S(=O)(=O)N2CCOCC2)c(Cl)cc1NC1CCCCC1 [CBK264576]  97.8%
36. O=C(COc1ccccc1)Nc1ccccc1CO [CBK263596]  97.9%
37. CC(=O)C1=C(c2ccccc2)NC(=S)NC1c1cc(Cl)ccc1OCC(=O)O (stereo not shown) [CBK267300]  99.4%
38. Nc1nc(OCc2ccncc2)cnc1-c1ccc(OC(F)(F)F)cc1 [CBK145121]  99.8%
39. Cc1noc(C)c1C(=O)N1CC[C@H]2NC(=O)c3ccccc3OCC/C=C/C[C@H]2C1 [CBK291994]  100%
40. CC(=O)Oc1ccc(NC(=O)C2CC(Cl)=CCC2C(=O)O)cc1C(=O)O (stereo not shown) [CBK265372]  100%
41. O=C(CCn1cncn1)N[C@H]1C2CCCCC2[C@@H]1c1ccccc1 (stereo partly shown) [CBK282970]  100%
42. O=C(CSc1nnc(-c2ccncc2)n1-c1ccccc1)Nc1ccnc2ccccc12 [CBK267900]  101%
43. O=C(CSc1ccccc1)Nc1cnc(-c2ccc(F)cc2)c(-c2ccco2)n1 [CBK037196]  101%
44. CCN(CC)C(=O)c1ccc(-c2ccc(NC(C)=O)cc2)nc1 [CBK158850]  101%
45. O=C(O)COc1ccc(Br)cc1/C=N/Nc1ccccn1 [CBK262369]  102%
46. Cc1cc(=O)n2c(c1C#N)SCC2 [CBK027807]  102%
47. N#C/C(=C\c1cccn1-c1ccc(S(N)(=O)=O)cc1)c1nc2ccccc2[nH]1 [CBK266167]  103%
48. CC(=O)c1ccc(S(=O)(=O)N2CCCCC2CNC(=O)c2ccco2)cc1 (stereo not shown) [CBK051472]  103%
49. CC(c1ccc(S(C)(=O)=O)cc1)N(C)C(=O)COc1ccc2ccccc2c1 (stereo not shown) [CBK296738]  103%
50. CCn1c2ccccc2c2cc(NC(=O)CSc3nnc(-c4ccoc4C)o3)ccc21 [CBK269010]  105%
51. COC(=O)c1ccccc1NC(=O)CNC(=O)c1ccc(Cl)cc1Cl [CBK267860]  105%
52. O=S(=O)(Nc1cc(OC2CCCNC2)c2occc2c1)c1cc(F)ccc1F (stereo not shown) [CBK073996C]  105%
53. Cc1cc(N2CCN(CC(=O)c3ccc(Cl)cc3)CC2)c2ccccc2n1 [CBK066868]  106%
54. CN(Cc1ccccc1N1CCOCC1)C(=O)c1ccc2ncsc2c1 [CBK296692]  108%
55. CCc1ccc(C(O)CNC2CCN(Cc3cscn3)CC2)cc1 (stereo not shown) [CBK304733]  108%
56. Clc1ccc(CNCc2cccnc2)cc1 [CBK086257C]  108%
57. Cc1ccc(S(=O)(=O)Nc2ccc(Nc3cc(-c4cccc([N+](=O)[O-])c4)ncn3)cc2)cc1 [CBK090983]  109%
58. Cc1cnc2[nH]c(C3CCCN(C(=O)c4cn(C)nc4C)C3)cc2c1 (stereo not shown) [CBK285170]  110%
59. COc1ccccc1N(CC(O)CN1CCCC1)S(=O)(=O)c1ccccc1 (stereo not shown) [CBK264829]  114%
60. COc1ccc(OC)c(C(O)c2coc3ccc(O)c(CN(C)C)c23)c1 (stereo not shown) [CBK261314]  114%
61. Nc1nc(O)c2c(n1)NC1(CCC1)[C@@H]1C[C@@H](O)[C@@H](O)[C@H]21 [CBK303248]  118%
62. Cn1cc(CN2CCOC[C@H]2c2nc(C(C)(C)C)c[nH]2)c2ccccc21 [CBK289322]  118%
63. Cc1ccc(S(=O)(=O)N(CCC#N)CCN2CCCC2)cc1 [CBK028055]  119%

same assay, conditions: human, hela cells, % viability, bulk resorufin, single well

With CSc1ccc(C(=O)C(C)(C)N2CCOCC2)cc1 [CBK028870] the viability at 28.5 h, 10 µM was 107%.
